# Experimental data published in PubChem BioAssay (NCI).
# “And” between values parts separate entries of the source, which are not always exact repeats. Equal entries are not always repeated.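 Protocol summary: plate cells (96-well), add compound at 5 concentrations, incubate 48 h, interpolate endpoints linearly. At the GI50, growth is halved. TGI denotes the concentration required for complete inhibition of growth.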
# Tests used:
# Experiment in all cases: inhibition of tumour cell growth, NCI panel, 48 h
# OVCAR-5 ovarian = system: OVCAR-5 ovarian
# NCI-H23 lung = system: NCI-H23 lung
# EKVX NSCLC = system: EKVX NSCLC
# TK-10 renal = system: TK-10 renal
# SF-268 CNS = system: SF-268 CNS
# SN12C renal = system: SN12C renal
# M14 melanoma = system: M14 melanoma
# HOP-92 NSCLC = system: HOP-92 NSCLC
# DU-145 prostate = system: DU-145 prostate
# SF-539 CNS = system: SF-539 CNS
Structure (SMILES),GI50 (OVCAR-5 ovarian),TGI (OVCAR-5 ovarian),GI50 (NCI-H23 lung),TGI (NCI-H23 lung),GI50 (EKVX NSCLC),TGI (EKVX NSCLC),GI50 (TK-10 renal),TGI (TK-10 renal),GI50 (SF-268 CNS),TGI (SF-268 CNS),GI50 (SN12C renal),TGI (SN12C renal),GI50 (M14 melanoma),TGI (M14 melanoma),GI50 (HOP-92 NSCLC),TGI (HOP-92 NSCLC),GI50 (DU-145 prostate),TGI (DU-145 prostate),GI50 (SF-539 CNS),TGI (SF-539 CNS)
CCN(CC)CCCC(C)Nc1c2ccc(Cl)cc2nc2cc(OC)c(OC)cc12 (centres undefined),2.18 µM,8.53 µM,1.48 µM,3.25 µM,1.78 µM,5.06 µM,1.99 µM,5.04 µM,1.93 µM,7.03 µM,3.31 µM,17.8 µM,1.88 µM,3.56 µM,2.33 µM,8.34 µM,2.02 µM,11.2 µM,1.64 µM,3.19 µM
Cc1ccc(C(=O)/C(=C\c2ccc([N+](=O)[O-])cc2)S(=O)Cc2ccc(F)cc2)cc1 (centres undefined),1.96 µM,3.93 µM,1.69 µM,3.36 µM,1.78 µM,3.8 µM,1.72 µM,3.28 µM,1.69 µM,3.36 µM,1.7 µM,3.42 µM,1.44 µM,2.89 µM,1.93 µM,3.87 µM,1.49 µM,2.86 µM,1.72 µM,3.29 µM
O=C(O)c1ccc2c3c(ncnc13)-c1ccccc1C2=O,37.9 µM,> 100 µM,0.796 µM,3.05 µM,51.6 µM,> 100 µM,21.9 µM,> 100 µM,37.1 µM,> 100 µM,4.26 µM,> 87.2 µM,1.35 µM,3.05 µM,> 100 µM,> 100 µM,1.46 µM,2.83 µM,8.5 µM,> 100 µM
CC(C)[NH-].CC(C)[NH-].O.O.[Cl][Pt+2][Cl],51.1 µM,145 µM,30.8 µM,183 µM,66.7 µM,203 µM,190 µM,467 µM,38.1 µM,231 µM,35.9 µM,133 µM,37.5 µM,139 µM,22.3 µM,70.8 µM,38.7 µM,332 µM,47.3 µM,160 µM
COc1ccc2c(c1)c1nc3cc(C)c(C)cc3nc1n2CCN(C)C,0.953 µM,2.3 µM,1.02 µM,2.88 µM,1.16 µM,2.85 µM,1.84 µM,3.58 µM,1.42 µM,3.57 µM,0.534 µM,1.99 µM,1.1 µM,2.57 µM,0.308 µM,2.12 µM,1.06 µM,2.37 µM,0.907 µM,2.35 µM
Clc1ccc(C(c2ccc(Cl)cc2)N2CCNCC2)cc1,,18.3 µM,,21.6 µM,,10.4 µM,,3.74 µM,,19.7 µM,,8.52 µM,,3.39 µM,,10.6 µM,,7.07 µM,,3.02 µM
Cc1cccc(Cl)c1NC(=O)c1cnc(Nc2cc(N3CCOCC3)cc(N3CCOCC3)c2)s1,0.0275 µM,> 10 µM,> 9.24 µM,> 10 µM,0.213 µM,> 10 µM,0.00622 µM,0.0729 µM,0.0626 µM,> 10 µM,0.0535 µM,> 10 µM,4.18 µM,> 10 µM,0.00255 µM,0.031 µM,0.163 µM,> 3.6 µM,0.0366 µM,> 6.8 µM
O=C(O)C1C(=O)Oc2c(cccc2[N+](=O)[O-])C1O (centres undefined),,> 100 µM,,> 100 µM,,> 100 µM,,> 100 µM,,> 100 µM,,> 100 µM,,> 100 µM,,> 100 µM,,> 100 µM,,> 100 µM
C[C@@H](NC(=O)[C@@H](CC(=O)N1CCC(N2CCCCC2)CC1)N1C(=O)[C@@H](N2C(=O)OC[C@@H]2c2ccccc2)[C@H]1/C=C/c1cccc(Cl)c1)c1ccccc1,5.78 µM,20.9 µM,3.85 µM,15.5 µM,3.79 µM,18 µM,1.92 µM,4.76 µM,2.31 µM,7.21 µM,2.9 µM,8.85 µM,1.75 µM,3.37 µM,3.64 µM,16.8 µM,4.03 µM,14.3 µM,1.76 µM,3.38 µM
CCCCOC(=O)c1ccc(NC(=O)CCl)cc1,2.16 µM,4.45 µM,2.4 µM,7.47 µM,2.37 µM,7.13 µM,1.91 µM,3.85 µM,1.78 µM,4.05 µM,1.56 µM,3.36 µM,3.07 µM,12.7 µM,1.93 µM,3.65 µM,1.81 µM,3.26 µM,1.7 µM,3.18 µM
COc1cc(F)cc([C@@H](CO)NC(=O)[C@@H](C)N2Cc3ccc(-c4nc(NC5CCOCC5)ncc4Cl)cc3C2=O)c1,< 0.0127 µM,> 100 µM,< 0.0133 µM,20.2 µM,0.108 µM,66 µM,0.0624 µM,> 76.8 µM,14.1 µM,99.6 µM,1.33 µM,> 100 µM,< 0.01 µM,0.962 µM,0.0321 µM,0.26 µM,12.3 µM,> 84.2 µM,5.33 µM,33.9 µM
O=C(NCCCCCCNC(=O)n1cc(F)c(=O)[nH]c1=O)NCCCOCCOCCOCCOCCOCCOCCOCCOCCOCCOCCOCCOCCOCCOCCOCCOCCOCCOCCOCCOCCOCCCNC(=O)C(O)C(O)C(OC1OC(CO)C(O)C(O)C1O)C(O)CO (centres undefined),,> 100 µM,,> 100 µM,,> 100 µM,,> 100 µM,,> 100 µM,,> 100 µM,,> 100 µM,,> 100 µM,,> 100 µM,,22.7 µM
OC(C1CO1)C(O)C1CO1 (centres undefined),93.9 µM,137 µM and 237 µM,36.4 µM,90 µM and 369 µM,175 µM,150 µM and 348 µM,182 µM,150 µM and 404 µM,27.4 µM and 27.5 µM,114 µM and 513 µM,13.9 µM,126 µM and 249 µM,28.7 µM,94.6 µM and 165 µM,56.1 µM,146 µM and 219 µM,6.7 µM,109 µM and 154 µM,,106 µM and 128 µM
